Results: patent US20060166892A1, “Treatment of cell proliferative disorders with chlorotoxin” (priority 2002, published 2006)
Where two headings read alike, the source gives them in different places. Ends that are not written are not given here. * marks the point of attachment. Biotin = O=C1N[C@H]2[C@H](CS[C@H]2CCCCC(=O)*)N1

Legend:
[1] = test system: D54MG Glioblastoma cells; conditions: 24 h
Protocol: The purpose of this experiment was to determine if the proliferation D54MG Glioblastoma cells, as measured by ^3H-thymidine uptake, is effected by Peptide 21, a segment of the full chlorotoxin sequence. The sequence of peptide 21 and its relation to chlorotoxin is shown in the sequence below:
D54MG cells were plated in a 24 well plate at 100,000 cells/ml/well using five rows of four wells for each concentration. The cells were allowed to adhere in normal media for twenty-four hours at 37° C. and 5% carbon dioxide. TM-701 was diluted to a […] stock solution and added to each row at the concentrations of 0, 20, 80, 160 and 320 nM.
The cells and peptide 21 were allowed to incubate for 24 hours at 37° C. and 5% carbon dioxide. After twenty-four hours, the cells were rinsed two times with warm PBS. Normal media was added back to the cells at 1 ml/well. One μCi of ^3H-thymidine was added to each well (1 μl of 1 mCi/ml ^3H-thymidine to each well). The plate was incubated for two hours at 37° C. The media and thymidine were removed and the wells were rinsed with ice-cold phosphate-buffered saline three times. To each well was added 1 ml of 0.3 N NaOH. The plate was incubated in the 37° C. incubator for thirty minutes. Each well of 0.3 N NaOH was pipetted up and down three to four times and removed from the plate and the solution was placed in scintillation vials for counting. Scintillation fluid at four times the amount of sample was added to the vials (4 ml). Each vial was counted on the scintillation counter for one minute.

[2] = test system: PC3 prostate cancer cells; assay: Binding of biotinylated peptides to PC3 cells, HRP-avidin detection; set-up: species or system human; conditions: chlorotoxin binding assay, FIG. 11
Protocol: To identify core binding site sequences of chlorotoxin, twenty-seven overlapping 10-mers derived from SEQ 1) NO: 1 were synthesized, starting from the C-terminus of the peptide as indicated in FIG. 7.
Binding of the 10-mer peptides to PC3 prostate cancer cells in vitro was measured by incubating cultured PC3 cells with individual peptides. Binding was detected and quantified by incubating the peptide exposed cells with HRP-avidin using a commercial kit according to manufacturer's instructions.
(SEQ ID NO: 10) sequentially as depicted in Table 5.
In order to compare binding of the short scorpion toxins, the regions homologous to peptide 21 of small toxin and probable toxin LQH-8/6 were synthesized and biotinylated for analysis in the chlorotoxin binding assay. (See Table 6 for amino acid sequences of the peptides).

Substance: Biotin-TTDHQMARKS [peptide 21]
- uptake of 3H-thymidine, trend over 20 to 320 nM ([1]; FIG. 12): decreases in a does-dependent manner
- 3H-Thymidine uptake ± SD ([1]; peptide 21 at 20 nM): 7795 ± 634 CPM
- 3H-Thymidine uptake ± SD ([1]; peptide 21 at 80 nM): 7412 ± 630 CPM
- 3H-Thymidine uptake ± SD ([1]; peptide 21 at 160 nM): 6983 ± 329 CPM
- 3H-Thymidine uptake ± SD ([1]; peptide 21 at 320 nM): 5782 ± 886 CPM
- binding in PC3 human prostate cancer cells [2]: 232.50 % of background levels

Substance: TTDPQMSKK [21ST, region of small toxin homologous to peptide 21, synthesized and biotinylated]
- binding in PC3 human prostate cancer cells [2]: 225.26 % of background levels

Substance: TTDQQMTKK [21LQ, region of probable toxin LQH-8/6 homologous to peptide 21, synthesized and biotinylated]
- binding in PC3 human prostate cancer cells [2]: 242.32 % of background levels

Substance: negative peptide (GKCYGPQCLC; Chlorotoxin; listed as Leiurus quinquestriatus) [reference compound]
- binding in PC3 human prostate cancer cells [2]: 110 % of background levels
